Values after ≈ are worked out from the molar mass of the structure shown.
Tests used:
[1] = test system: super sensitive Gram-negative Escherichia coli (E. coli) BAS849; assay: Antibacterial activity, microbroth dilution MIC, E. coli BAS849; type: cell-based; conditions: Escherichia coli; E. coli BAS849, microbroth dilution; read-out: MIC, BAS849
[2] = test system: quinolone resistant E. coli LZ3111; assay: Antibacterial activity, MIC, quinolone resistant E. coli LZ3111; type: cell-based, Escherichia coli; conditions: Escherichia coli, read-out: MIC, LZ3111
Description: The antibacterial activity from a microbroth dilution method may be presented as the minimum inhibitory concentration (MIC in […]). The MIC value is the lowest concentration of a drug which prevents macroscopically visible bacterial growth under test conditions.
Mutations in these regions are known to confer a high level resistance to the quinolone class of antibiotics.

[3] = test system: control Gram-negative E. coli 25922 strain; assay: Antibacterial activity, microbroth dilution MIC, E. coli 25922; type: cell-based, Escherichia coli; conditions: Escherichia coli; E. coli 25922, microbroth dilution; read-out: MIC, 25922
[4] = test system: Gram-positive Staphylococcus aureus (S. aureus) 29213; assay: Antibacterial activity, microbroth dilution MIC, S. aureus 29213; type: cell-based; conditions: Staphylococcus aureus; S. aureus 29213, microbroth dilution; read-out: MIC, 29213

Compound: CCc1cc(C(=O)O)c(=O)[nH]c1-c1ccc(N2CCC(O)CC2)cc1 [Cpd 222, 5-ethyl-6-[4-(4-hydroxypiperidin-1-yl)phenyl]-2-oxo-1,2-dihydropyridine-3-carboxylic acid]
- MIC [1]: 1 to 3.5 µg/mL (≈ 2.92 to 10.2 µM)
- MIC [2]: 12.5 to 150 µg/mL (≈ 36.5 to 438 µM)
- MIC [3]: 12.5 to 150 µg/mL (≈ 36.5 to 438 µM)
- MIC [4]: 12.5 to 150 µg/mL (≈ 36.5 to 438 µM)

Compound: CCc1cc(C(=O)O)c(=O)[nH]c1-c1ccc(N2CCC(N(C)C)CC2)cc1 [Cpd 223, 6-{4-[4-(dimethylamino)piperidin-1-yl]phenyl}-5-ethyl-2-oxo-1,2-dihydropyridine-3-carboxylic acid]
- MIC [1]: 12.5 to 150 µg/mL (≈ 33.8 to 406 µM)
- MIC [2]: 12.5 to 150 µg/mL (≈ 33.8 to 406 µM)
- MIC [3]: 12.5 to 150 µg/mL (≈ 33.8 to 406 µM)
- MIC [4]: 12.5 to 150 µg/mL (≈ 33.8 to 406 µM)

Compound: CCc1cc(C(=O)O)c(=O)[nH]c1-c1ccc(N2CCC(OC)CC2)cc1 [Cpd 224, 5-ethyl-6-[4-(4-methoxypiperidin-1-yl)phenyl]-2-oxo-1,2-dihydropyridine-3-carboxylic acid]
- MIC [1]: < 1 µg/mL
- MIC [2]: 12.5 to 150 µg/mL (≈ 35.1 to 421 µM)
- MIC [3]: 12.5 to 150 µg/mL (≈ 35.1 to 421 µM)
- MIC [4]: 12.5 to 150 µg/mL (≈ 35.1 to 421 µM)

Compound: CCc1cc(C(=O)O)c(=O)[nH]c1-c1ccc(N2CCC(N)CC2)cc1 [Cpd 228, 6-[4-(4-aminopiperidin-1-yl)phenyl]-5-ethyl-2-oxo-1,2-dihydropyridine-3-carboxylic acid]
- MIC [1]: 12.5 to 150 µg/mL (≈ 36.6 to 439 µM)
- MIC [2]: 12.5 to 150 µg/mL (≈ 36.6 to 439 µM)
- MIC [3]: 12.5 to 150 µg/mL (≈ 36.6 to 439 µM)
- MIC [4]: 12.5 to 150 µg/mL (≈ 36.6 to 439 µM)

Compound: CCc1cc(C(=O)O)c(=O)[nH]c1-c1ccc(N2CCC(n3ccnn3)C2)cc1 (centres unmarked) [Cpd 230, 5-ethyl-2-oxo-6-{4-[3-(1H-1,2,3-triazol-1-yl)pyrrolidin-1-yl]phenyl}-1,2-dihydropyridine-3-carboxylic acid]
- MIC [1]: < 1 µg/mL
- MIC [2]: 12.5 to 150 µg/mL (≈ 32.9 to 395 µM)
- MIC [3]: 1 to 3.5 µg/mL (≈ 2.64 to 9.22 µM)
- MIC [4]: 3.5 to 12.5 µg/mL (≈ 9.22 to 32.9 µM)

Compound: CCc1cc(C(=O)O)c(=O)[nH]c1-c1ccc(N2CCC(C)(O)C2)cc1 (centres unmarked) [Cpd 233, 5-ethyl-6-[4-(3-hydroxy-3-methylpyrrolidin-1-yl)phenyl]-2-oxo-1,2-dihydropyridine-3-carboxylic acid]
- MIC [1]: < 1 µg/mL
- MIC [2]: 12.5 to 150 µg/mL (≈ 36.5 to 438 µM)
- MIC [3]: 3.5 to 12.5 µg/mL (≈ 10.2 to 36.5 µM)
- MIC [4]: 12.5 to 150 µg/mL (≈ 36.5 to 438 µM)

Compound: CCc1cc(C(=O)O)c(=O)[nH]c1-c1ccc(N2CCC(CNCc3ccccc3Cl)C2)cc1 (centres unmarked) [Cpd 234, 6-[4-(3-{[(2-chlorobenzyl)amino]methyl}pyrrolidin-1-yl)phenyl]-5-ethyl-2-oxo-1,2-dihydropyridine-3-carboxylic acid]
- MIC [1]: < 1 µg/mL
- MIC [2]: 12.5 to 150 µg/mL (≈ 26.8 to 322 µM)
- MIC [3]: 1 to 3.5 µg/mL (≈ 2.15 to 7.51 µM)
- MIC [4]: 12.5 to 150 µg/mL (≈ 26.8 to 322 µM)

Compound: CCc1cc(C(=O)O)c(=O)[nH]c1-c1ccc(N2CCC(C)(CN)C2)cc1 (centres unmarked) [Cpd 235, 6-{4-[3-(aminomethyl)-3-methylpyrrolidin-1-yl]phenyl}-5-ethyl-2-oxo-1,2-dihydropyridine-3-carboxylic acid]
- MIC [1]: 1 to 3.5 µg/mL (≈ 2.81 to 9.85 µM)
- MIC [2]: 12.5 to 150 µg/mL (≈ 35.2 to 422 µM)
- MIC [3]: 12.5 to 150 µg/mL (≈ 35.2 to 422 µM)
- MIC [4]: 12.5 to 150 µg/mL (≈ 35.2 to 422 µM)

Compound: CCc1cc(C(=O)O)c(=O)[nH]c1-c1ccc(N2CCC(CNCc3cccc(Cl)c3)C2)cc1 (centres unmarked) [Cpd 236, 6-[4-(3-{[(3-chlorobenzyl)amino]methyl}pyrrolidin-1-yl)phenyl]-5-ethyl-2-oxo-1,2-dihydropyridine-3-carboxylic acid]
- MIC [1]: < 1 µg/mL
- MIC [2]: 12.5 to 150 µg/mL (≈ 26.8 to 322 µM)
- MIC [3]: 1 to 3.5 µg/mL (≈ 2.15 to 7.51 µM)
- MIC [4]: 3.5 to 12.5 µg/mL (≈ 7.51 to 26.8 µM)

Compound: CCc1cc(C(=O)O)c(=O)[nH]c1-c1ccc(N2CCC(CNCc3ccc(Cl)cc3)C2)cc1 (centres unmarked) [Cpd 237, 6-[4-(3-{[(4-chlorobenzyl)amino]methyl}pyrrolidin-1-yl)phenyl]-5-ethyl-2-oxo-1,2-dihydropyridine-3-carboxylic acid]
- MIC [1]: < 1 µg/mL
- MIC [2]: 12.5 to 150 µg/mL (≈ 26.8 to 322 µM)
- MIC [3]: < 1 µg/mL
- MIC [4]: 3.5 to 12.5 µg/mL (≈ 7.51 to 26.8 µM)

Compound: CCc1cc(C(=O)O)c(=O)[nH]c1-c1ccc(N2CCC(CNCc3cccc(F)c3)C2)cc1 (centres unmarked) [Cpd 238, 5-ethyl-6-[4-(3-{[(3-fluorobenzyl)amino]methyl}pyrrolidin-1-yl)phenyl]-2-oxo-1,2-dihydropyridine-3-carboxylic acid]
- MIC [1]: < 1 µg/mL
- MIC [2]: 12.5 to 150 µg/mL (≈ 27.8 to 334 µM)
- MIC [3]: 1 to 3.5 µg/mL (≈ 2.22 to 7.79 µM)
- MIC [4]: 12.5 to 150 µg/mL (≈ 27.8 to 334 µM)

Reference: patent US9650395B2, “Antibacterial compounds and methods for use” (PTC Therapeutics, Inc., priority 2011, dated 2017)
